Data from patent publication US9650497B2, “Phosphonamidates-synthesis and flame retardant applications” (EMPA EIDGENOSSISCHE MATERIALPRUFUNGS- UND FORSCHUNGSANSTALT, priority 2011, dated 2017).
Where two headings read alike, the source gives them in different places.

What was measured:
[1] = TGA thermal decomposition of DOPO and amino DOPO derivatives; format: physicochemical; details: for TdMax: Temperature for maximum decomposition rate: several values = multiple decomposition stages
Experimental: One of the important objectives of developing various amino derivatives of DOPO was to improve the thermal stability of DOPO itself. This will ensure their suitability to be used in thermoplastic polymers which require usually high processing temperatures (200-350° C.).

[2] = UL-94 HB test (ASTM D4986 or ISO/DIS 9772.3, horizontal); details: for flame retardancy effect compared to unmodified DOPO: Table 6; for UL 94 HB test rating (Horizontal): OH terminated prepolymer foam
[3] = BKZ flammability test (Swiss standard, vertical burning)
Experimental: The synthesized compounds were evaluated for flame retardant properties by incorporating them in flexible PU foams.
The flexible polyurethane foams were manufactured according to the recipe mentioned in Table 3 below.
The manufacture of the foams according to the formulations in Table 3 was done by handmix in the laboratory based on 200 gms polyol. The formulation of the components taking part in the reaction was identical in all cases except for the addition of Flame retardants where indicated.
The resulting foams were dried and aged for 3 h at 80° C. The foams were then tested for their flammability according to Swiss flammability standard (BKZ). It's a vertical burning test for foamed materials with a specific sample size (length: 160 mm, width: 60 mm, thickness: 6 mm±10% tolerance). For each specimen flame test (BKZ) was performed in triplicate. If the results were not consistent, each specimen was tested 6 times. For the BKZ test an air dried specimen was placed in a vertical position and subjected to flame from the lower front edge by a standardized flame. The flame height of 20 mm was maintained and should burn constantly with sharp outlines. The burner position was adjusted 45° so that the flame hits the specimen vertically in the middle of the lower front edge. The flame is brought in contact with the foam for 15 sec and should be placed such that the foam bottom is approximately 4±1 mm inside the flame from the tip.

[4] = Small Burner test, DIN 4102-1 class B2, edge application of flame; details: spray foam
Experimental: The Small Burner test equipment employed within this patent is in accordance to the requirements for the tests of the building materials class B2 specified in DIN 4102-1.
All flame tests done within this report are based on edge application of the impinging flame.
The B2-burner tests were carried out approx. one week after foaming.

[5] = Water solubility of DOPO compounds; format: physicochemical; details: for water solubility in words: up to 90° C.; for solubility: water
Source text: These DOPO-derivatives are very barely soluble in water as it is exemplarily shown for EDAB-DOPO and TEPA-PDOPO in table 2.

[6] = 5% FR in flexible PU foam (Table 3 recipe, handmix)
[7] = 25° C., read-out: solubilitiy FR in water mg/L
[8] = 25° C., read-out: solubilitiy FR in water mmol/L
[9] = 90° C., read-out: solubilitiy FR in water mg/L
[10] = 90° C., read-out: solubilitiy FR in water mmol/L

C=CCNP1(=O)Oc2ccccc2-c2ccccc21 (centres unmarked) [AA-DOPO]
Td1: Temperature for 10% weight loss [1]: 247 °C | % Char at 800° C. [1]: 3% | TdMax: Temperature for maximum decomposition rate [1]: 295 °C | Burning Rate ([2]; 5% FR in flexible PU foam): 47 mm/min | UL-94 HB Rating ([2]; 5% FR in flexible PU foam): HF-2 | flame retardancy effect compared to unmodified DOPO ([2]; 5% FR in flexible PU foam): better flame retardancy effect as compared to unmodified DOPO | BKZ Classification [3, 6]: Class 5 (flame does not reach the top level of the sample holder (150 mm). duration ≦ 20 s)

O=[PH]1Oc2ccccc2-c2ccccc21 (centres unmarked) [DOPO, 9,10-dihydro-9-oxa-phosphaphenanthrene-10-oxide, reference compound]
Td1: Temperature for 10% weight loss [1]: 201 °C | temperature at which decomposition starts [1]: < 200 °C | % Char at 800° C. [1]: 2% | TdMax: Temperature for maximum decomposition rate [1]: 267 °C | Burning Rate ([2]; 5% FR in flexible PU foam): 48 mm/min | UL-94 HB Rating ([2]; 5% FR in flexible PU foam): HBF | BKZ Classification [3, 6]: Class 5 (flame does not reach the top level of the sample holder (150 mm). duration ≦ 20 s)

O=P1(NCCOP2(=O)Oc3ccccc3-c3ccccc32)Oc2ccccc2-c2ccccc21 (centres unmarked) [EAB-DOPO]
Td1: Temperature for 10% weight loss [1]: 311 °C | % Char at 800° C. [1]: 2% | TdMax: Temperature for maximum decomposition rate [1]: 387 °C

O=P1(NCCNP2(=O)Oc3ccccc3-c3ccccc32)Oc2ccccc2-c2ccccc21 (centres unmarked) [EDAB-DOPO]
Td1: Temperature for 10% weight loss [1]: 355 °C | % Char at 800° C. [1]: 7% | TdMax: Temperature for maximum decomposition rate [1]: 415 °C | Burning Rate ([2]; 5% FR in flexible PU foam): 25 mm/min | UL-94 HB Rating ([2]; 5% FR in flexible PU foam): HF-1 | flame retardancy effect compared to unmodified DOPO ([2]; 5% FR in flexible PU foam): better flame retardancy effect as compared to unmodified DOPO | effect of doubling the amount of FR on flame height and extinguishing of the flame [4]: no significant effect | water solubility in words [5]: only very small amounts | solubility [5, 7]: 393 mg/L | solubility [5, 8]: 0.8 mmol/L | solubility [5, 9]: 501 mg/L | solubility [5, 10]: 1.03 mmol/L | BKZ Classification [3, 6]: Class 5 (flame does not reach the top level of the sample holder (150 mm). duration ≦ 20 s) | flammability performance versus TCPP ([3]; polyether foam, lower density, 2.8 pphp water, columns 3 and 5): works better at least in vertical tests | effect on flammability versus foam without FR ([3]; polyether foam, water 1.6 pphp, columns 4 and 1): positive effect on flammability | flammability performance versus TCPP ([3]; polyether foam, water 1.6 pphp, columns 4 and 2): works at least as well than TCPP

O=P1(N2CCN(P3(=O)Oc4ccccc4-c4ccccc43)CC2)Oc2ccccc2-c2ccccc21 (centres unmarked) [PB-DOPO]
Td1: Temperature for 10% weight loss [1]: 387 °C | % Char at 800° C. [1]: 5% | TdMax: Temperature for maximum decomposition rate [1]: 433 °C | Burning Rate ([2]; 5% FR in flexible PU foam): 57 mm/min | UL-94 HB Rating ([2]; 5% FR in flexible PU foam): HBF | BKZ Classification [3, 6]: Class 5 (flame does not reach the top level of the sample holder (150 mm). duration ≦ 20 s)

CC(CCl)OP(=O)(OC(C)CCl)OC(C)CCl (centres unmarked) [TCPP, Tris(2-chlorisopropyl)phosphate, reference compound]
Burning Rate [2]: 23 mm/min | UL-94 HB Rating [2]: HBF | BKZ Classification [3]: Class 5 (key: Class 3: time 5-20 s; Class 4: time, duration of burning > 20 s; Class 5: flame does not reach the top level of the sample holder (150 mm). duration ≦ 20 s)

O=P1(NCCN(CCNP2(=O)Oc3ccccc3-c3ccccc32)P2(=O)Oc3ccccc3-c3ccccc32)Oc2ccccc2-c2ccccc21 (centres unmarked) [TDETA-DOPO]
Td1: Temperature for 10% weight loss [1]: 294 °C | % Char at 800° C. [1]: 2% | TdMax: Temperature for maximum decomposition rate [1]: 385 °C | UL-94 HB Rating ([2]; 5% FR in flexible PU foam): HF-1 | BKZ Classification [3, 6]: Class 5 (flame does not reach the top level of the sample holder (150 mm). duration ≦ 20 s)

O=P1(NCCN(CCN(CCN(CCNP2(=O)Oc3ccccc3-c3ccccc32)P2(=O)Oc3ccccc3-c3ccccc32)P2(=O)Oc3ccccc3-c3ccccc32)P2(=O)Oc3ccccc3-c3ccccc32)Oc2ccccc2-c2ccccc21 (centres unmarked) [TEPA-PDOPO, tetraethylenepentaamine DOPO]
UL-94 HB Rating ([2]; 5% FR in flexible PU foam): HF-1 | UL 94 HB test rating (Horizontal) ([2]; 5 pphp FR): HF2 | UL 94 HB test rating (Horizontal) ([2]; 10 pphp FR): HF1 | effect of doubling the amount of FR on flame height and extinguishing of the flame [4]: no significant effect | water solubility in words [5]: only very small amounts | solubility [5, 7]: 15.4 mg/L | solubility [5, 8]: 0.01 mmol/L | solubility [5, 9]: 818 mg/L | solubility [5, 10]: 0.65 mmol/L | BKZ Classification [3, 6]: Class 5 (flame does not reach the top level of the sample holder (150 mm). duration ≦ 20 s) | BKZ Class (Vertical) ([3]; 10 pphp FR, OH terminated prepolymer foam): 5 | effect of more FR on flammability behavior ([3]; OH terminated prepolymer foam, 5 vs 10 pphp, horizontal and vertical tests): improves flammability behavior in both horizontal and vertical tests

CCO[Si](CCCNP1(=O)Oc2ccccc2-c2ccccc21)(OCC)OCC (centres unmarked) [TESPA-DOPO]
Td1: Temperature for 10% weight loss [1]: 234 °C | % Char at 800° C. [1]: 28% | TdMax: Temperature for maximum decomposition rate [1]: 135/287/437
